{"source": "paper PMC11503492", "about": "“Activity-Based DNA-Encoded Library Screening for Selective Inhibitors of Eukaryotic Translation” (ACS Central Science, 2024)", "key": {"[1]": {"tested_on": "PCSK9[1:33]-GFP translation", "experiment": "Microfluidic activity-based DEL screen in WG IVTT droplets, PCSK9[1:33]-GFP, hit k class by sequencing", "type": "biochemical, wheat germ", "conditions": "number of times hit structure observed on distinct beads, summed across PCSK9[1:33]-GFP screens; *** p < 0.001, NS not significant", "protocol": "The validated PF846-inspired library was screened to discover novel translation inhibitors. DEL beads were encapsulated in microfluidic droplets of WG IVTT and irradiated with UV in flow to liberate DEL members into the droplets. The photodosed droplets were incubated and sorted based on fluorescence.[25] PCSK9[1:33]-GFP was chosen as a proof-of-concept target, and PCSK9-FS[1:33]-GFP was used as a counter screen target to identify nonselective compounds. PC-HygB were mixed with DEL beads and screened in the microfluidic device for inhibitors of translation. […] Droplet generation, bead introduction, and library and control bead hit rate were uniform during the screen (Figure 3, bottom).\nHit collection DNA tags from the PCSK9[1:33]-GFP and PCSK9-FS[1:33]-GFP screens were sequenced to deduce the structures of molecules that inhibited PCSK9[1:33]- or PCSK9-FS[1:33]-GFP translation. Hit structure k class, the number of times a given hit structure is observed on distinct beads,[31] was summed across screens and visualized as a heat map (Figure 4A). […] The combined hit sets for the two templates contained 121 unique hits with k ≥ 17 across the two screening campaigns. The most frequently observed cycle 1 starter BBs were 1 and 2, which share an 8-methylisoquinoline moiety, but differ in the vector for cycle 2 carboxylic acid connection, and 3, which contains an N-methylazaindole moiety. The most frequently identified cycle 2 tails included carboxylic acids 4–7. […] Substituted pyrazole 6 and pyridyl-benzimidazole 7 also appeared frequently with the aforementioned starters. There were 5 hits that appeared with high k class in both PCSK9[1:33]-GFP and PCSK9[1:33]-FS-GFP screening campaigns.\n319 the droplet experiment to homogenize the bead suspension. Syringes were connected to\n320 fluidic inputs with microbore Tygon tubing (0.01” x 0.03” IC × OD). Droplet generation oil\n321 (OIL1) was 1% picosurf in HFE. Spacing (OIL2) and pinning (OIL3) oils were neat HFE.\n322 Assay reagents were driven by displacement syringe pumps (Legato 100, KD Scientific,\n323 Holliston, MA) through the circuit. OIL2 and OIL3 were initially flowed (22 µL/min and\n324 12 µL/min, respectively) and hit and waste shunt tubing were clamped to backfill the\n325 circuit. Once the incubator was filled with oil, the hit and waste tubing were unclamped\n326 and back shunts were clamped. AQ1, AQ2, and OIL1 flows were initiated (960 nL/min,\n327 640 nL/min, and 1200 nL/min, respectively) and held constant during the screen. Once\n328 droplet generation equilibrated (∼10 min), the main shunt was clamped and droplets\n329 started to fill the incubator. When droplets filled the incubator and entered the sorting\n330 region, data acquisition and screening was initiated.\n331 The custom confocal LIF detection setup and LabView code were previously described.S3\n332 Briefly, photon counting PMTs (H7828, Hamamatsu, Middlesex, NJ) were used to detect\n333 droplet fluorescence emission using a custom two-channel (520 and 570 nm) confocal mi-\n334 croscope with laser excitation (488 nm, 20 mW, OBIS-488 20LS, Coherent Inc., Santa Clara,\n335 CA). A data acquisition board (DAQ, NI, USB-6341, National Instruments) was used to\n336 digitize PMT signal, which was binned into counts, and in-house LabView code was used\n337 to control acquisition and execute droplet sorting decisions. Signal was smoothed in real-\n338 time using median-filter smoothing (width = 3). Droplets were identified by the 570 nm\n339 channel signal and the maximum signal in the 520 nm channel (max = countsn-1 when\n340 countsn <countsn-1) was set as the droplet peak value. A roaming sort threshold was\n342 the 520 nm channel. The threshold was calculated as µ - 5σ, where µ andσ were the mean\n343 and standard deviation of the previous 300 droplets’ fluorescence values, respectively. Hit\n344 droplets were not included in the calculation of droplet mean and standard deviation. A […]"}, "[2]": {"tested_on": "PCSK9[1:33]-GFP translation", "experiment": "Wheat germ lysate (WG) IVTT microplate activity assay, PCSK9[1:33]-GFP template", "type": "biochemical", "conditions": "for inhibition of PCSK9[1:33]-GFP translation (in words) / IC50: WG IVTT; for IC50: PCSK9[1:33]-GFP template, triplicate, ± standard deviation of the mean", "excerpt": "(§1) A commercially available wheat germ lysate (WG) IVTT system was employed to assay translation inhibition. Translation activity was detected via a GFP reporter, and the assay was miniaturized to picoliter-scale microfluidic droplets (Figure 1A,B). […] PCSK9 and RPL27 were truncated to the first 33 and 32 amino acids, respectively (PCSK9[1:33] and RPL27[1:32]). The sequences contain distinct PF846 stall sites and were both fused to a GFP reporter. The GFP reporter and a frameshift mutant of PCSK9[1:33] (PCSK9-FS[1:33]), which mutates the nascent chain sequence while maintaining a nearly identical mRNA sequence, were included as negative controls.[13] […] Sequence sensitivity was further confirmed by an N-terminal deletion series of PCSK9[1:33]-GFP; deletion of N-terminal residues increasingly ablated PCSK9[1:33]-GFP translation sensitivity to PF846 (Figure 1D). The WG IVTT assay was miniaturized using a previously described microfluidic circuit modified for longer incubation times (Figure S1)[27] using PF846 as a positive control compound, and assay statistical quality was calculated (Z′=0.7) (Figure 1E). To confirm detection of translation inhibition from library beads, hygromycin B, a nonselective aminoglycoside translation inhibitor, was coupled to beads displaying a photocleavable linker (PC-HygB). UV irradiation releases hygromycin from the bead, allowing it to interact with the WG IVTT assay in the droplet. PC-HygB bead photocleavage supernatant inhibited PCSK9[1:33]-GFP translation both in a microplate assay and in microfluidic droplets (Figure 1F,G, S2). Assay statistical quality using PC-HygB positive control beads was similarly calculated (Z′ = 0.75, Figure 1H). […]\n(§2) 436 Microplate IVTT Assays\n(§3) 437 Wheat germ lysate IVTT plate assays were prepared as 5 µL reactions. Wheat germ lysate\n(§4) 438 (3 µL) was added to test compound or vehicle control (1 µL) in a 384-well black microplate\n(§5) 439 and the reaction was incubated (10 min, RT). Template (1 µL) was added and reaction\n(§6) 440 progress was immediately monitored (λex = 480 nm, λem = 530 nm, 27 °C, 2 h). Rela-\n(§7) 441 tive activity was calculated using the slope of fluorescence increase over time (at 15–30\n(§8) 442 min post reaction initiation) for compound samples relative to that of the DMSO vehicle\n443 control. […]"}, "[3]": {"tested_on": "PCSK9-FS[1:33]-GFP translation", "experiment": "WG IVTT microplate activity assay, PCSK9-FS[1:33]-GFP frameshift counter template", "type": "biochemical, wheat germ", "conditions": "for IC50: PCSK9-FS[1:33]-GFP template, triplicate, undetectable IC50 marked >300; for activity on PCSK9-FS[1:33]-GFP translation (in words): frameshift control", "excerpt": "as §1, §2, §3, §4, §5, §6, §7, §8\n443 control. All microplate experiments contained 25 ng/µL plasmid, except for assays with\n445 respectively. HeLa lysate IVTT plate assays were prepared as 5.5 µL reactions. […]"}}}
{"smiles": "Cc1cccc2ccnc(N(C(=O)[C@H]3CCCN(C(=O)c4cccc5c(C#N)c[nH]c45)C3)[C@@H]3CCCNC3)c12", "note": "[Compound 8]", "values": [{"measurement": "k class PCSK9", "setting": "[1]", "result": 47}, {"measurement": "inhibition of PCSK9[1:33]-GFP translation (in words)", "setting": "[2]", "result": "moderately inhibited"}, {"measurement": "IC50", "setting": "[2]", "result": "1.3 ± 0.2", "unit": "µM"}, {"measurement": "IC50", "setting": "[3]", "result": "> 300", "unit": "µM"}, {"measurement": "activity on PCSK9-FS[1:33]-GFP translation (in words)", "setting": "[3]", "result": "inactive"}]}
{"smiles": "Cc1cccc2ccnc(N(C(=O)C3CCN(C(=O)c4cccc5c(C#N)c[nH]c45)CC3)[C@@H]3CCCNC3)c12", "note": "[Compound 9]", "values": [{"measurement": "k class PCSK9", "setting": "[1]", "result": 28}, {"measurement": "inhibition of PCSK9[1:33]-GFP translation (in words)", "setting": "[2]", "result": "similarly active on both templates"}, {"measurement": "IC50", "setting": "[2]", "result": "19.6 ± 0.2", "unit": "µM"}, {"measurement": "inhibition of translation of all reporters (in words)", "setting": "[2]; all IVTT reporters tested", "result": "universally and completely inhibited"}, {"measurement": "IC50", "setting": "[3]", "result": "24 ± 0.4", "unit": "µM"}, {"measurement": "activity on PCSK9-FS[1:33]-GFP translation (in words)", "setting": "[3]", "result": "similarly active on both templates"}]}
